Experiments:
CDK2/Cyclin A = biological target: T1, CDK2/Cyclin A (Homo sapiens, UniProt P24941); test: Enzymatic assay for CDK2 (FRET based LANCE Ultra kinase assay); type: biochemical; settings: read-out: CDK2 enzymatic activity (IC50 range)
T1 construct: purchased Invitrogen PV6290
Procedure, shortened: (§1)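 Each CDK complex ([…]) phosphorylated 68 nM ULight-MBP peptide with ATP at Km for 60 min at 23° C., against 8 compound doses (4-fold dilutions). EDTA/Eu-anti-phospho-MBP detection, 60 min, then TR-FRET emission at 615 and 665 nm.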

CDK1/Cyclin B = biological target: T2, CDK1/Cyclin B (Homo sapiens, UniProt P06493); test: Enzymatic assay for CDK1 (FRET based LANCE Ultra kinase assay); type: biochemical; settings: read-out: CDK1 enzymatic activity (IC50 range)
T2 construct: purchased Invitrogen PR4768C
Procedure, shortened: as §1

H460 = test: Cellular H460 viability assay (CellTiter-Glo, 72 hours); type: cell-based; settings: Homo sapiens, NCI-H460
Procedure, shortened: (§2)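 Steps: seed cells at per-line density; add compound, DMSO vehicle kept under 0.1% final; incubate 72 h, 37 °C, 5% CO2; lyse with CellTiter-Glo and read luminescence; run in duplicate.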

MM.1S = test: Cellular MM.1S viability assay (CellTiter-Glo, 72 hours); type: cell-based; settings: Homo sapiens, MM1.S
Procedure, shortened: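 Cells seeded at 1×10^4/well (MM.1S), 5×10^3 (OVCAR-3) or 1×10^3 (A2780), grown in RPMI-1640 with 10% FBS. After 24 h, compound added at 0.0015–10 uM, final DMSO below 0.1%, for 72 h at 37° C. Viability read by CellTiter-Glo luminescence in duplicate, with curve fitting.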

MOLT-4 = test: Cellular MOLT-4 viability assay (CellTiter-Glo, 72 hours); type: cell-based; settings: Homo sapiens, MOLT4 viability assay
Procedure, shortened: as §2

CDK5/p25 = biological target: T3, CDK5/p25 (Homo sapiens, UniProt Q00535); test: Enzymatic assay for CDK5 (FRET based LANCE Ultra kinase assay); type: biochemical; settings: read-out: CDK5 enzymatic activity (IC50 range)
T3 construct: purchased Invitrogen PR8543B
Procedure, shortened: as §1

RPMI-8226 = test: Cellular RPMI-8226 viability assay (CellTiter-Glo, 72 hours); type: cell-based; settings: Homo sapiens
Procedure, shortened: as §2

CDK7/Cyclin H/MNAT1 = biological target: T4, CDK7/Cyclin H/MNAT1 (Homo sapiens, UniProt P50613); test: Enzymatic assay for CDK7 (FRET based LANCE Ultra kinase assay); type: biochemical; settings: for IC50: read-out: CDK7 enzymatic activity (IC50 range)
T4 construct: purchased Invitrogen PR6749B
Procedure, shortened: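 LANCE Ultra TR-FRET kinase assay using a ULight-labeled peptide substrate and a Eu-labeled anti-phospho antibody, with ATP at its Km. Purified CDK/cyclin complex was added to compound after brief centrifugation.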

MV4-11 = test: Cellular MV4-11 viability assay (CellTiter-Glo, 72 hours); type: cell-based; settings: Homo sapiens
Procedure, shortened: as §2

HCT116 = test: Cellular HCT116 viability assay (CellTiter-Glo, 72 hours); type: cell-based; settings: Homo sapiens, HCT-116
Procedure, shortened: as §2

T2 sequence (P06493 whole entry): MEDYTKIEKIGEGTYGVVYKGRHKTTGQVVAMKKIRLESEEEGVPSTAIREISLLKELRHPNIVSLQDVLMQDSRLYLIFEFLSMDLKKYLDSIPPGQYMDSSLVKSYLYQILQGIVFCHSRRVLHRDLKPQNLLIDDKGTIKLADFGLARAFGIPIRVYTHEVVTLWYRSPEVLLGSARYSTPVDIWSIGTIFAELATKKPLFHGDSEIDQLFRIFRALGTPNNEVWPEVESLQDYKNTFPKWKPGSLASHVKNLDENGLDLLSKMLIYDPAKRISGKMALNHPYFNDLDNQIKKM
T2 sequence (P14635 whole entry partner): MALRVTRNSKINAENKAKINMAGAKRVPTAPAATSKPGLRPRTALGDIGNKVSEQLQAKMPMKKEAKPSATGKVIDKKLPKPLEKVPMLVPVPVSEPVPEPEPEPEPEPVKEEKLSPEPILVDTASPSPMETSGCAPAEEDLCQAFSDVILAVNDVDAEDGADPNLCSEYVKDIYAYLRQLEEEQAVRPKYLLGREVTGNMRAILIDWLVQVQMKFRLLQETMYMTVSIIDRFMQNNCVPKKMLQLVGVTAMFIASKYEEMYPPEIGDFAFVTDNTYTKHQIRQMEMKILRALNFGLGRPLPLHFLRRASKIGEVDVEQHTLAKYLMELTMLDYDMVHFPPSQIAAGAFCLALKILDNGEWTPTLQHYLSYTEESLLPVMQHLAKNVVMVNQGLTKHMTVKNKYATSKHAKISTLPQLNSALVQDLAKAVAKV
T3 sequence (Q00535 whole entry): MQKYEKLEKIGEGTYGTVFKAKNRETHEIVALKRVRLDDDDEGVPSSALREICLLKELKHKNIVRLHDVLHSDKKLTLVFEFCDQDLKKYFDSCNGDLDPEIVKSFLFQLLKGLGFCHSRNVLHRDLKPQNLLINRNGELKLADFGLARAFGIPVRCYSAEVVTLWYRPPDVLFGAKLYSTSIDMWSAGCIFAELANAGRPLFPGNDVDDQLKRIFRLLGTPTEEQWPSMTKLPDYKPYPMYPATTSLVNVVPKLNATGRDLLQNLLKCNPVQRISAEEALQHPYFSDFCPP
T3 sequence (Q15078 99-307 partner limits assumed): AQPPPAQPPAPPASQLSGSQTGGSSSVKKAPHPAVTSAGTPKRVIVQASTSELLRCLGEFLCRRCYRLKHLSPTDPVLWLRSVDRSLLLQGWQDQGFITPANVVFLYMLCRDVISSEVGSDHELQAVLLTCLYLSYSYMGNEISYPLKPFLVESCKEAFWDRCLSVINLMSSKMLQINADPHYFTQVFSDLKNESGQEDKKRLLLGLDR
T4 sequence (P50613 whole entry): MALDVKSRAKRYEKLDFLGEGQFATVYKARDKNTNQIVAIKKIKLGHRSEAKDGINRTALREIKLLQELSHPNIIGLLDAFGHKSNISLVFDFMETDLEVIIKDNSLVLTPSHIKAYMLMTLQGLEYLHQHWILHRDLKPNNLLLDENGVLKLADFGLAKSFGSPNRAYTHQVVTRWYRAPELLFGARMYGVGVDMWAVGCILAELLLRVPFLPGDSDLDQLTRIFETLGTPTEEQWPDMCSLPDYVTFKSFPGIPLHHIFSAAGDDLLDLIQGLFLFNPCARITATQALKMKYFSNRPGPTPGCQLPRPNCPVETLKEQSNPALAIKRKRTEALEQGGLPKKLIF
T4 sequence (P51946 whole entry partner): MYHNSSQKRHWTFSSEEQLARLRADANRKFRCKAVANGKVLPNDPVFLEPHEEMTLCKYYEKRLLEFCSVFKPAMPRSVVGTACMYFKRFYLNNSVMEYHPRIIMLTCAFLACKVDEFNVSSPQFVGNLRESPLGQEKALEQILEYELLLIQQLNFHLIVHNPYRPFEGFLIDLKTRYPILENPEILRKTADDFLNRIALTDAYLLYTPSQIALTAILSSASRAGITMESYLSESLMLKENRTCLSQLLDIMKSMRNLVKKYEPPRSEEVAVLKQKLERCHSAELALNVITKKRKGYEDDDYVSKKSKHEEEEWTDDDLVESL
T4 sequence (P51948 whole entry partner): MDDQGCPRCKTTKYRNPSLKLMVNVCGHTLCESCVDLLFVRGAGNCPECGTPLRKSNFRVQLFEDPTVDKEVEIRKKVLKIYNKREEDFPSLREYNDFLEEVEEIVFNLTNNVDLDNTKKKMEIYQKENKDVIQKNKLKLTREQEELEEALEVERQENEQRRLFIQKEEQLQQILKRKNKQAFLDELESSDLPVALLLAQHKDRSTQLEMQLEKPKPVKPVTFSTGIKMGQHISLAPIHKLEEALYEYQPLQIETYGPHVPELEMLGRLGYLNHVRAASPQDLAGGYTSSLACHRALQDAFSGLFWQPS

SMILES | IC50 (CDK2/Cyclin A) [µM] | IC50 (CDK1/Cyclin B) [µM] | IC50 (H460) [µM] | IC50 (MM.1S) [µM] | IC50 (MOLT-4) [µM] | IC50 (CDK5/p25) [µM] | IC50 (RPMI-8226) [µM] | CDK1/CDK7: Selectivity of CDK7 inhibition over CDK1 inhibition (CDK7/Cyclin H/MNAT1) | CDK2/CDK7: Selectivity of CDK7 inhibition over CDK2 inhibition (CDK7/Cyclin H/MNAT1) | CDK5/CDK7: Selectivity of CDK7 inhibition over CDK5 inhibition (CDK7/Cyclin H/MNAT1) | IC50 (CDK7/Cyclin H/MNAT1) [µM] | IC50 (MV4-11) [µM] | IC50 (HCT116) [µM]
CC(C)c1cnn2c(NCc3ccccc3-c3nccc4c(NC(=O)CCCN(C)C)cccc34)nc(N3CCC(N)CC3)nc12 [Compound 90] | > 1 | > 1 | 1 to 10 | > 10 | > 10 | > 1 | 1 to 10 | A (A=greater than 200 fold) | A (A=greater than 200 fold) | A (A=greater than 200 fold) | < 0.1 | < 1 | 1 to 10
COc1cccc(-n2cccn2)c1CNc1nc(N2CCC(N)CC2)nc2c(C(C)C)cnn12 [Compound 39] | > 1 | > 1 | 1 to 10 | 1 to 10 | > 10 | > 1 | 1 to 10 | A (A=greater than 200 fold) | A (A=greater than 200 fold) | A (A=greater than 200 fold) | < 0.1 | 1 to 10 | –
CC(C)c1cnn2c(NCc3c(F)cccc3-n3cccn3)nc(N3CCC(N)CC3)nc12 [Compound 42] | 0.1 to 1 | > 1 | < 1 | ≤ 1 | 1 to 10 | 0.1 to 1 | < 1 | A (A=greater than 200 fold) | A (A=greater than 200 fold) | B (B=less than 200 fold, but greater than 20 fold) | < 0.1 | < 1 | –
Cc1cccc(-n2cccn2)c1CNc1nc(N2CCC(N)CC2)nc2c(C(C)C)cnn12 [Compound 43] | > 1 | > 1 | < 1 | 1 to 10 | 1 to 10 | > 1 | 1 to 10 | A (A=greater than 200 fold) | A (A=greater than 200 fold) | A (A=greater than 200 fold) | < 0.1 | < 1 | < 1
CC(C)c1cnn2c(NCc3ccccc3-n3cc4cc(F)ccc4n3)nc(N3CCC(N)CC3)nc12 [Compound 108] | 0.1 to 1 | 0.1 to 1 | < 1 | ≤ 1 | 1 to 10 | 0.1 to 1 | < 1 | B (B=less than 200 fold, but greater than 20 fold) | B (B=less than 200 fold, but greater than 20 fold) | B (B=less than 200 fold, but greater than 20 fold) | < 0.1 | < 1 | < 1
CC(C)c1cnn2c(NCc3ccccc3-c3nccc4ccccc34)nc(N3CCC(N)CC3)nc12 [Compound 79] | > 1 | > 1 | 1 to 10 | 1 to 10 | > 10 | > 1 | 1 to 10 | A (A=greater than 200 fold) | A (A=greater than 200 fold) | A (A=greater than 200 fold) | < 0.1 | 1 to 10 | –
CC(C)c1cnn2c(NCc3ccccc3-n3cccn3)nc(-c3cccc(C(=O)N4CCC(N)CC4)c3)nc12 [Compound 171] | > 1 | > 1 | < 1 | ≤ 1 | 1 to 10 | > 1 | 1 to 10 | A (A=greater than 200 fold) | A (A=greater than 200 fold) | A (A=greater than 200 fold) | < 0.1 | < 1 | < 1
CC(C)c1cnn2c(NCc3ccccc3-n3cc4ccccc4n3)nc(N3CCC(N)CC3)nc12 [Compound 72] | 0.1 to 1 | 0.1 to 1 | < 1 | ≤ 1 | < 1 | 0.1 to 1 | < 1 | A (A=greater than 200 fold) | B (B=less than 200 fold, but greater than 20 fold) | B (B=less than 200 fold, but greater than 20 fold) | < 0.1 | < 1 | < 1
CC(C)c1cnn2c(NCc3ccccc3-c3ccc4ccccc4n3)cc(N3CCC(N)CC3)nc12 [Compound 73] | > 1 | > 1 | < 1 | ≤ 1 | 1 to 10 | 0.1 to 1 | 1 to 10 | A (A=greater than 200 fold) | A (A=greater than 200 fold) | B (B=less than 200 fold, but greater than 20 fold) | < 0.1 | < 1 | < 1
CC(C)c1cnn2c(NCc3c(Cl)cccc3-n3cccn3)nc(N3CCC(N)CC3)nc12 [Compound 38] | > 1 | > 1 | < 1 | ≤ 1 | 1 to 10 | 0.1 to 1 | < 1 | A (A=greater than 200 fold) | A (A=greater than 200 fold) | B (B=less than 200 fold, but greater than 20 fold) | < 0.1 | < 1 | –

Reference: patent US11945822B2, “Pyrazolo-triazine and/or pyrazolo-pxrimidine derivatives as selective inhibitor of cyclin dependent kinase” (QURIENT CO., LTD., priority 2018, dated 2024)
